This experiment deals with BDF1 mice, B16 melanoma s.c., survival/tumor T/C. The experiment in a line: NCI In Vivo Anticancer Drug Screen. Data for tumor model B16 Melanoma (subcutaneous) in B6D2F1 (BDF1) mice. As to conditions: endpoint: median survival time, higher = longer survival. On the procedure: The antitumor activity of compounds was measured in mice bearing transplantable tumors. Survival or tumor size were measured and the results are expressed as the measurement made in the treated group (T) divided by the measurement made in the vehicle treated control group (C). The tumor model used in this assay is B16 Melanoma (subcutaneous) in B6D2F1 (BDF1) mice

Setting [1] is: dose: 3.0 mg/kg/injection, schedule: Q01DX009 (ip), vehicle: saline.
Setting [2] is: dose: 100.0 mg/kg/injection, schedule: Q01DX009 (ip), vehicle: saline with Tween-80.

“And” between values parts separate entries of the source, which are not always exact repeats. Equal entries are not always repeated. Records with an inconclusive call do not appear.

As to `Cc1c2ccncc2c(C)c2c1[nH]c1ccccc12`, the T/C reads like this: (dose: 25.0 mg/kg/injection, schedule: Q04DX003 (ip), vehicle: Klucel (hydroxypropylcellulose) (HPC)) 105 % of control; (dose: 50.0 mg/kg/injection, schedule: Q04DX003 (ip), vehicle: Klucel (hydroxypropylcellulose) (HPC)) 98 % of control; (dose: 82.0 mg/kg/injection, schedule: Q04DX003 (ip), vehicle: saline with Tween-80) 122 % of control; (dose: 400.0 mg/kg/injection, schedule: Q01DX001 (ip), vehicle: saline with Tween-80) 112 % of control; (dose: 900.0 mg/kg/injection, schedule: Q01DX001 (ip), vehicle: saline with Tween-80) 114 % of control.

In the case of `O=CC(NC(=O)N(CCCl)N=O)C(O)C(O)C(O)CO` (centres undefined), the T/C is 115 % of control under setting [1]; 115 % of control (dose: 3.3 mg/kg/injection, schedule: Q01DX009 (ip), vehicle: saline); 112 % of control (dose: 4.5 mg/kg/injection, schedule: Q01DX009 (ip), vehicle: saline); 102 % of control (dose: 4.9 mg/kg/injection, schedule: Q01DX009 (ip), vehicle: saline); 89 % of control (dose: 6.8 mg/kg/injection, schedule: Q01DX009 (ip), vehicle: saline); 100 % of control (dose: 7.4 mg/kg/injection, schedule: Q01DX009 (ip), vehicle: saline). The T/C is 122 % of control (dose: 10.0 mg/kg/injection, schedule: Q01DX009 (ip), vehicle: saline); 112 % of control (dose: 12.0 mg/kg/injection, schedule: Q04DX003 (ip), vehicle: saline); 118 % of control (dose: 13.0 mg/kg/injection, schedule: Q01DX001 (ip), vehicle: saline); 112 % of control (dose: 16.0 mg/kg/injection, schedule: Q01DX001 (ip), vehicle: saline); 106 % of control (dose: 18.0 mg/kg/injection, schedule: Q04DX003 (ip), vehicle: saline); 96 % of control (dose: 20.0 mg/kg/injection, schedule: Q01DX001 (ip), vehicle: saline). Moreover, the T/C by setting is: (dose: 24.0 mg/kg/injection, schedule: Q01DX001 (ip), vehicle: saline) 102 % of control; (dose: 27.0 mg/kg/injection, schedule: Q04DX003 (ip), vehicle: saline) 108 % of control; (dose: 36.0 mg/kg/injection, schedule: Q01DX001 (ip), vehicle: saline) 112 % of control.

As for `CCSC(=O)N1c2ccc(OC)cc2C=CC1C#N` (centres undefined), the T/C runs as follows: under setting [2], 109 % of control; (dose: 200.0 mg/kg/injection, schedule: Q01DX009 (ip), vehicle: saline with Tween-80) 114 % of control.

For the compound `CCOC(=O)C1CCC(NC(=O)N(CCCl)N=O)CC1` (centres undefined), the T/C by setting is: (dose: 33.0 mg/kg/injection, schedule: Q01DX001 (ip), vehicle: gum acacia) 196 % of control; (dose: 44.0 mg/kg/injection, schedule: Q01DX001 (ip), vehicle: gum acacia) 192 % of control.

Turning to `O=c1[nH]cc(N(CCCl)CCCl)c(=O)[nH]1`, the T/C was 109 % of control (dose: 0.25 mg/kg/injection, schedule: Q01DX009 (ip), vehicle: saline with Tween-80) and 124 % of control (dose: 0.5 mg/kg/injection, schedule: Q01DX009 (ip), vehicle: saline with Tween-80).

Take `O=NN(CCF)C(=O)NC1CCS(=O)(=O)CC1`: the T/C (dose: 24.0 mg/kg/injection, schedule: Q01DX001 (ip), vehicle: other) was 156 % of control and the T/C (dose: 32.0 mg/kg/injection, schedule: Q01DX001 (ip), vehicle: other) is 175 % of control.

On to `NC(CS/C(Cl)=C/Cl)C(=O)O` (centres undefined), for which the T/C by setting is: (dose: 1.25 mg/kg/injection, schedule: Q01DX009 (ip), vehicle: saline) 102 % of control; (dose: 2.5 mg/kg/injection, schedule: Q01DX009 (ip), vehicle: saline) 95 % of control; (dose: 5.0 mg/kg/injection, schedule: Q01DX009 (ip), vehicle: saline) 97 % of control and 106 % of control; (dose: 18.0 mg/kg/injection, schedule: Q01DX009 (ip), vehicle: saline) 101 % of control.

For `NC(=O)c1ccc[n+](Cc2c(Cl)cccc2Cl)c1`, the T/C was 106 % of control (dose: 0.75 mg/kg/injection, schedule: Q01DX009 (ip), vehicle: saline); 98 % of control under setting [1]; 102 % of control and 117 % of control (dose: 6.0 mg/kg/injection, schedule: Q01DX009 (ip), vehicle: saline); 106 % of control and 114 % of control (dose: 12.0 mg/kg/injection, schedule: Q01DX009 (ip), vehicle: saline).

Turning to `O=NN(CCF)C(=O)NC1CCC(=O)NC1=O` (centres undefined), the T/C (dose: 3.11 mg/kg/injection, schedule: Q01DX007 (ip), vehicle: Klucel (hydroxypropylcellulose) (HPC)) was 121 % of control; the T/C (dose: 5.18 mg/kg/injection, schedule: Q01DX007 (ip), vehicle: Klucel (hydroxypropylcellulose) (HPC)) is 124 % of control; the T/C (dose: 8.64 mg/kg/injection, schedule: Q01DX007 (ip), vehicle: Klucel (hydroxypropylcellulose) (HPC)) is 164 % of control.

Turning to `CC(NSc1ccccc1[N+](=O)[O-])C(=O)O` (centres undefined), the T/C runs as follows: (dose: 12.5 mg/kg/injection, schedule: Q01DX009 (ip), vehicle: saline with Tween-80) 109 % of control; (dose: 25.0 mg/kg/injection, schedule: Q01DX009 (ip), vehicle: saline with Tween-80) 106 % of control; (dose: 50.0 mg/kg/injection, schedule: Q01DX009 (ip), vehicle: saline with Tween-80) 89 % of control; under setting [2], 122 % of control.

With `OC(CCl)CN1CC[N+]2(CC1)CC[N+]1(CCN(CC(O)CCl)CC1)CC2` (centres undefined), the T/C runs as follows: (dose: 134.0 mg/kg/injection, schedule: Q01DX007 (ip), vehicle: saline) 162 % of control; (dose: 200.0 mg/kg/injection, schedule: Q01DX009 (ip), vehicle: saline) 112 % of control; (dose: 300.0 mg/kg/injection, schedule: Q01DX007 (ip), vehicle: saline) 173 % of control; (dose: 300.0 mg/kg/injection, schedule: Q01DX009 (ip), vehicle: saline) 161 % of control; (dose: 670.0 mg/kg/injection, schedule: Q01DX001 (ip), vehicle: saline) 108 % of control; (dose: 1000.0 mg/kg/injection, schedule: Q01DX001 (ip), vehicle: saline) 92 % of control. Moreover, the T/C (dose: 1500.0 mg/kg/injection, schedule: Q01DX001 (ip), vehicle: saline) is 120 % of control.

As for `O=C(O)CCC(=O)O`, the T/C (dose: 5.0 mg/kg/injection, schedule: Q01DX009 (ip), vehicle: water) is 117 % of control and 102 % of control; the T/C (dose: 40.0 mg/kg/injection, schedule: Q01DX009 (ip), vehicle: water) is 114 % of control [middle of 6 runs]; the T/C (dose: 80.0 mg/kg/injection, schedule: Q01DX009 (ip), vehicle: water) is 97 % of control [middle of 5 runs]; the T/C (dose: 160.0 mg/kg/injection, schedule: Q01DX009 (ip), vehicle: water) was 96 % of control [middle of 4 runs].

`CC[C@](O)(C(=O)O)c1cc2n(c(=O)c1CO)Cc1cc3ccccc3nc1-2`: the T/C by setting is: (dose: 0.25 mg/kg/injection, schedule: Q01DX009 (ip), vehicle: saline) 102 % of control; (dose: 0.5 mg/kg/injection, schedule: Q01DX009 (ip), vehicle: saline) 102 % of control; (dose: 1.0 mg/kg/injection, schedule: Q01DX009 (ip), vehicle: Klucel (hydroxypropylcellulose) (HPC)) 104 % of control; (dose: 2.0 mg/kg/injection, schedule: Q01DX009 (ip), vehicle: Klucel (hydroxypropylcellulose) (HPC)) 104 % of control; (dose: 2.0 mg/kg/injection, schedule: Q01DX009 (ip), vehicle: saline) 98 % of control.

For the compound `COc1cccc2c1C(=O)c1c(O)c3c(c(O)c1C2=O)C[C@@](O)(C(=O)CO)C[C@@H]3OC1CC(N)C(O)C(C)O1` (some centres undefined), the T/C is 100 % of control and 111 % of control (dose: 0.12 mg/kg/injection, schedule: Q01DX009 (ip), vehicle: saline); 100 % of control (dose: 1.0 mg/kg/injection, schedule: Q01DX008 (ip), vehicle: saline); 96 % of control (dose: 1.5 mg/kg/injection, schedule: Q01DX008 (ip), vehicle: saline).

As to `c1ccc([As+](c2ccccc2)(c2ccccc2)c2ccccc2)cc1`, the T/C (dose: 1.87 mg/kg/injection, schedule: Q01DX009 (ip), vehicle: Klucel (hydroxypropylcellulose) (HPC)) was 95 % of control and the T/C (dose: 3.75 mg/kg/injection, schedule: Q01DX009 (ip), vehicle: Klucel (hydroxypropylcellulose) (HPC)) was 109 % of control.

Source of the values: PubChem BioAssay AID194 (DTP/NCI, 2004).
